Source: the supplement of paper PMC10307832

Columns and labels:
Assay in all cases: relative viability (nuclei count vs DMSO), 5 days (fraction); higher = more cells survive
JZL-184 + Navitoclax = compound: C1CN(CCC1C(C2=CC3=C(C=C2)OCO3)(C4=CC5=C(C=C4)OCO5)O)C(=O)OC6=CC=C(C=C6)[N+](=O)[O-] [JZL-184] + CC1(C)CCC(c2ccc(Cl)cc2)=C(CN2CCN(c3ccc(C(=O)NS(=O)(=O)c4ccc(N[C@H](CCN5CCOCC5)CSc5ccccc5)c(S(=O)(=O)C(F)(F)F)c4)cc3)CC2)C1 [Navitoclax] (partner 0.5 µM)
Procedure, shortened: (§1)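 Values are medians from duplicate plates. Each reflects relative viability, defined as the nuclei count of treated wells over that of vehicle wells. Lung cancer cell lines in 1536-well plates were pin-tool dosed one day after seeding with one drug alone or with a fixed anchor-drug dose plus five library-drug doses (not always all listed) in √10 steps, then fixed, stained and imaged at 4× after 5 days.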

JZL-184 + Bortezomib = compound: C1CN(CCC1C(C2=CC3=C(C=C2)OCO3)(C4=CC5=C(C=C4)OCO5)O)C(=O)OC6=CC=C(C=C6)[N+](=O)[O-] [JZL-184] + CC(C)C[C@H](NC(=O)[C@H](Cc1ccccc1)NC(=O)c1cnccn1)B(O)O [Bortezomib] (partner 0.002 µM)
Procedure, shortened: as §1

JZL-184 + Pictilisib = compound: C1CN(CCC1C(C2=CC3=C(C=C2)OCO3)(C4=CC5=C(C=C4)OCO5)O)C(=O)OC6=CC=C(C=C6)[N+](=O)[O-] [JZL-184] + CS(=O)(=O)N1CCN(Cc2cc3nc(-c4cccc5[nH]ncc45)nc(N4CCOCC4)c3s2)CC1 [Pictilisib] (partner 1 µM)
Procedure, shortened: as §1

JZL-184 + Lapatinib = compound: C1CN(CCC1C(C2=CC3=C(C=C2)OCO3)(C4=CC5=C(C=C4)OCO5)O)C(=O)OC6=CC=C(C=C6)[N+](=O)[O-] [JZL-184] + CS(=O)(=O)CCNCc1ccc(-c2ccc3ncnc(Nc4ccc(OCc5cccc(F)c5)c(Cl)c4)c3c2)o1 [Lapatinib] (partner 2 µM)
Procedure, shortened: as §1

JZL-184 + OSI-027 = compound: C1CN(CCC1C(C2=CC3=C(C=C2)OCO3)(C4=CC5=C(C=C4)OCO5)O)C(=O)OC6=CC=C(C=C6)[N+](=O)[O-] [JZL-184] + COc1cccc2cc(-c3nc([C@H]4CC[C@H](C(=O)O)CC4)n4ncnc(N)c34)[nH]c12 [OSI-027] (partner 0.5 µM)
Procedure, shortened: as §1

| Cell Line | relative viability (JZL-184 + Navitoclax; first compound 0.04 µM) | relative viability (JZL-184 + Navitoclax; first compound 0.4 µM) | relative viability (JZL-184 + Navitoclax; first compound 1.265 µM) | relative viability (JZL-184 + Navitoclax; first compound 4 µM) | relative viability (JZL-184 + Bortezomib; first compound 0.04 µM) | relative viability (JZL-184 + Bortezomib; first compound 0.4 µM) | relative viability (JZL-184 + Bortezomib; first compound 1.265 µM) | relative viability (JZL-184 + Bortezomib; first compound 4 µM) | relative viability (JZL-184 + Pictilisib; first compound 0.04 µM) | relative viability (JZL-184 + Pictilisib; first compound 0.4 µM) | relative viability (JZL-184 + Pictilisib; first compound 1.265 µM) | relative viability (JZL-184 + Pictilisib; first compound 4 µM) | relative viability (JZL-184 + Lapatinib; first compound 0.04 µM) | relative viability (JZL-184 + Lapatinib; first compound 0.4 µM) | relative viability (JZL-184 + Lapatinib; first compound 1.265 µM) | relative viability (JZL-184 + Lapatinib; first compound 4 µM) | relative viability (JZL-184 + OSI-027; first compound 0.04 µM) | relative viability (JZL-184 + OSI-027; first compound 0.4 µM) | relative viability (JZL-184 + OSI-027; first compound 1.265 µM) | relative viability (JZL-184 + OSI-027; first compound 4 µM) |
| --- | --- | --- | --- | --- | --- | --- | --- | --- | --- | --- | --- | --- | --- | --- | --- | --- | --- | --- | --- | --- |
| NCI-H1703 | 1.6 | 0.852 | 1.54 | 1.4 | 0.349 | 0.213 | 0.359 | 0.467 | 0.265 | 0.216 | 0.288 | 0.246 | 1.44 | 0.936 | 1.4 | 0.983 | – | – | – | – |
| LK-2 | 0.941 | 0.821 | 1.06 | 0.77 | – | – | – | – | 0.511 | 0.6 | 0.632 | 0.645 | 1.24 | 0.878 | 1.04 | 0.972 | 0.195 | 0.193 | 0.249 | 0.21 |
| NCI-H650 | – | – | – | – | 0.912 | 0.801 | 1.04 | 0.738 | 1.08 | 0.857 | 0.884 | 0.876 | 0.916 | 0.793 | 1.07 | 0.894 | 0.603 | 0.525 | 0.576 | 0.542 |
| NCI-H661 | – | – | – | – | 0.763 | 0.803 | 0.796 | 0.889 | 0.372 | – | 0.455 | 0.452 | 0.505 | 0.481 | 0.637 | 0.382 | 0.806 | 0.638 | 0.761 | 0.53 |
| NCI-H1793 | 0.351 | 0.426 | 0.502 | 0.38 | – | – | – | – | 0.295 | 0.214 | 0.344 | 0.31 | 0.853 | 0.492 | 0.812 | 0.422 | 0.26 | 0.263 | 0.319 | 0.259 |
| NCI-H1395 | 1.49 | 1.22 | 1.18 | 1.02 | – | – | – | – | 0.596 | 0.536 | 0.761 | 0.551 | 0.997 | 0.953 | 0.91 | 0.995 | 0.623 | 0.519 | 0.69 | 0.581 |
| SK-MES-1 | 1.35 | 1.14 | 1.12 | 1.17 | – | – | – | – | 0.348 | 0.408 | 0.389 | 0.349 | 0.424 | 0.434 | 0.43 | 0.415 | 0.597 | 0.625 | 0.673 | 0.535 |
| NCI-H1563 | – | – | – | – | 0.79 | 0.797 | 0.86 | 0.933 | 0.673 | 0.676 | 0.669 | 0.675 | 0.951 | 0.923 | 0.972 | 0.868 | 0.794 | 0.729 | 0.776 | 0.7 |
| IA-LM | 0.983 | 0.711 | 0.78 | 0.794 | 1.04 | 0.786 | 0.844 | 0.866 | 0.456 | 0.361 | 0.376 | 0.312 | 1.09 | 0.555 | 0.759 | 0.629 | – | – | – | – |
